Reference: patent US3988476A, “Pharmaceutical compositions and methods of treating allergic conditions utilizing 2-nitroindane-1,3-dione derivatives as the active agent” (Beecham Group Limited, priority 1972, dated 1976)

Tested on: PCA response
Assay: Rat Passive Cutaneous Anaphylaxis (PCA) test, ovalbumin challenge
Type: in vivo, Wistar rats
Settings: for % Inhibition of PCA response: 34 mg/kg
Procedure: All of the 2-nitro indane-1,3-dione prepared in the preceding Examples were submitted for biological testing. The test system was the Rat Passive Cutaneous Anaphylaxis (PCA) test described below in (ii).
Male Wister rats of 250- 300 g, were injected intraperitoneally with 0.5 ml of Bordatella pertussis vaccine (containing 4× 10^10 dead organism per ml) and subcutaneously with 0.5 ml of an emulsion of 100 mg. of ovalbumin in 2 ml of saline and 3 ml of incomplete Freunds' adjuvant. Rats were bled by cardiac puncture on day 18, the blood was pooled and separated and serum stored at -20° and thawed only once before use.
0.1 ml of each of six twofold serial dilutions of the serum in 0.9% saline were injected intradermally into separate sites on the shaved dorsal surface of 250-350 g. Wistar rats. 72 hours later the animals were challenged by i.v. injection of 0.3 ml of 1% ovalbumin mixed with 0.1 ml of a 5% solution of pontamine sky blue dye both in isotonic saline buffered with pH. 7.2 Sorenson buffer (P.B.S.). The rats were killed after 20 minutes and the diameter of the blue wheals at the antibody injection sites were measured. The starting dilution of the serum was adjusted so that there was no response, after challenge, at the site of injection of the highest dilution and a maximum response at the lowest dilution.
Amounts of the compounds were administered to rats each amount to a test group of six animals at a specified time prior to intravenous challenge with ovalbumin.
For those compounds having insoluble sodium salts, the salts were isolated by reaction of the free nitro compound with 2.5N sodium hydroxide and the filtered sodium washed free of alkali with water. The dried salts were then administered as a suspension in 1% methyl cellulose.

[1] = 25 mg/kg, 0 min between dosing and challenge, suspension of Na salt in 1% methyl cellulose
[2] = 100 mg/kg, 0 min between dosing and challenge, suspension of Na salt in 1% methyl cellulose
[3] = 25 mg/kg, 0 min between dosing and challenge, solution of Na salt
[4] = 25 mg/kg, 60 min between dosing and challenge, solution of Na salt
[5] = 100 mg/kg, 0 min between dosing and challenge, solution of Na salt
[6] = 100 mg/kg, 60 min between dosing and challenge, solution of Na salt
[7] = 25 mg/kg, 30 min between dosing and challenge, solution of Na salt
[8] = 25 mg/kg, 60 min between dosing and challenge, suspension of Na salt in 1% methyl cellulose
[9] = 100 mg/kg, 60 min between dosing and challenge, suspension of Na salt in 1% methyl cellulose
[10] = 100 mg/kg, 30 min between dosing and challenge, solution of Na salt

## CC(C)Oc1cccc2c1C(=O)C([N+](=O)[O-])C2=O (centres unmarked) [4-isopropyloxy-2-nitroindane 1,3-dione, 4Isopropyloxy-2-nitro-indane-1,3-dione]
[1]
  % INHIBITION OF PCA RESPONSE: 23%
25 mg/kg, 30 min between dosing and challenge, suspension of Na salt in 1% methyl cellulose
  % INHIBITION OF PCA RESPONSE: 36%
[2]
  % INHIBITION OF PCA RESPONSE: 49%
100 mg/kg, 30 min between dosing and challenge, suspension of Na salt in 1% methyl cellulose
  % INHIBITION OF PCA RESPONSE: 51%

## CCCCOc1cccc2c1C(=O)C([N+](=O)[O-])C2=O (centres unmarked) [4-n-butyloxy-2-nitroindane 1,3-dione, 4-n-Butyloxy-2-nitro indane-1,3-dione]
[3]
  % INHIBITION OF PCA RESPONSE: 29%
[4]
  % INHIBITION OF PCA RESPONSE: 43%
[5]
  % INHIBITION OF PCA RESPONSE: 63%
[6]
  % INHIBITION OF PCA RESPONSE: 50%

## Cc1cc(C)c2c(c1)C(=O)C([N+](=O)[O-])C2=O (centres unmarked) [4,6-dimethyl-2-nitroindane-1,3-dione, 4,6-Dimethyl-2-nitro-indane-1,3-dione]
[3]
  % INHIBITION OF PCA RESPONSE: 58%
[7]
  % INHIBITION OF PCA RESPONSE: 27%

## Cc1ccc(C)c2c1C(=O)C([N+](=O)[O-])C2=O [4,7-dimethyl-2-nitroindane-1,3-dione, 4,7-Dimethyl-2-nitro-indane-1,3-dione]
[1]
  % INHIBITION OF PCA RESPONSE: 35%
[8]
  % INHIBITION OF PCA RESPONSE: 16%
[2]
  % INHIBITION OF PCA RESPONSE: 46%
[9]
  % INHIBITION OF PCA RESPONSE: 8%

## O=C1c2ccc3c(c2C(=O)C1[N+](=O)[O-])CCCC3 (centres unmarked) [4,5-cyclohexano 2-nitroindane 1,3-dione, 4,5-Cyclohexano-2-nitroindane-1,3-dione]
0 min between dosing and challenge, suspension of Na salt in 1% methyl cellulose
  % Inhibition of PCA response: 7%
60 min between dosing and challenge, suspension of Na salt in 1% methyl cellulose
  % Inhibition of PCA response: 32%

## COc1ccc(C)c2c1C(=O)C([N+](=O)[O-])C2=O (centres unmarked) [4-Methoxy-7-methyl-2-nitro indane1,3-dione]
[3]
  % INHIBITION OF PCA RESPONSE: 34%
[7]
  % INHIBITION OF PCA RESPONSE: 62%
[5]
  % INHIBITION OF PCA RESPONSE: 36%
[10]
  % INHIBITION OF PCA RESPONSE: 44%

## Cc1cccc2c1C(=O)C([N+](=O)[O-])C2=O (centres unmarked) [4-methyl-2-nitroindane-1,3-dione, 4-Methyl-2-nitroindane-1,3-dione]
[1]
  % INHIBITION OF PCA RESPONSE: 2%
[8]
  % INHIBITION OF PCA RESPONSE: 33%
[2]
  % INHIBITION OF PCA RESPONSE: 6%
[9]
  % INHIBITION OF PCA RESPONSE: 57%

## O=C1c2cccc(Br)c2C(=O)C1[N+](=O)[O-] (centres unmarked) [4-bromo-2-nitroindane-1,3-dione, 4-Bromo-2-nitro indane-1,3dione]
[1]
  % INHIBITION OF PCA RESPONSE: 8%
[8]
  % INHIBITION OF PCA RESPONSE: 24%
[2]
  % INHIBITION OF PCA RESPONSE: -4%
[9]
  % INHIBITION OF PCA RESPONSE: 70%

## CCc1cccc2c1C(=O)C([N+](=O)[O-])C2=O (centres unmarked) [4-ethyl-2-nitroindane-1,3-dione, 4-Ethyl-2-nitro indane-1,3-dione]
[1]
  % INHIBITION OF PCA RESPONSE: -5%
[8]
  % INHIBITION OF PCA RESPONSE: 23%
[2]
  % INHIBITION OF PCA RESPONSE: 1%
[9]
  % INHIBITION OF PCA RESPONSE: 25%

## O=C1c2cccc(-c3ccccc3)c2C(=O)C1[N+](=O)[O-] (centres unmarked) [2-nitro-4-phenyl indane 1,3 indione, 2-Nitro-4-Phenyl indane-1,3-dione]
[3]
  % INHIBITION OF PCA RESPONSE: 12%
[4]
  % INHIBITION OF PCA RESPONSE: 22%
[5]
  % INHIBITION OF PCA RESPONSE: 8%
[6]
  % INHIBITION OF PCA RESPONSE: 24%

## Cc1ccc2c(c1)C(=O)C([N+](=O)[O-])C2=O (centres unmarked) [5-methyl-2-nitroindane-1,3-dione, 5-Methyl-2-nitroindane-1,3-dione]
[3]
  % INHIBITION OF PCA RESPONSE: 66%
[7]
  % INHIBITION OF PCA RESPONSE: 44%
[5]
  % INHIBITION OF PCA RESPONSE: 100%
[10]
  % INHIBITION OF PCA RESPONSE: 47%

## O=C1c2ccc(-c3ccccc3)cc2C(=O)C1[N+](=O)[O-] (centres unmarked) [2-nitro-5-phenyl indane-1,3-dione, 2-Nitro-5-phenyl indane-1,3-dione]
[1]
  % INHIBITION OF PCA RESPONSE: 58%
[8]
  % INHIBITION OF PCA RESPONSE: 56%
[2]
  % INHIBITION OF PCA RESPONSE: 82%
[9]
  % INHIBITION OF PCA RESPONSE: 36%
